Reference: ChEMBL document CHEMBL4811216, “Chemotherapy for human schistosomiasis: how far have we come? What's new? Where do we go from here?” (RSC Med Chem, 2020)

What was measured:
Schistosoma mansoni [1] = test: Antischistosomal activity against Schistosoma mansoni Liberian infected in NMRI mouse assessed as worm burden reduction at 200 mg/kg, po measured after 14 days relative to control; format: functional; parameters: scale not given: the % may be the effect or the level left; settings: time 14 day
Schistosoma mansoni [2] = test: Antischistosomal activity against adult Schistosoma mansoni LE assessed as reduction in motor activity at 50 uM measured after 24 hrs by inverted microscopy relative to control; format: functional; parameters: scale not given: the % may be the effect or the level left
Histone deacetylase 8 [3] = target: T1, Histone deacetylase 8 (Homo sapiens, UniProt Q9BY41); test: Inhibition of human HDAC8 using Fluor de Lys as substrate incubated for 90 mins by fluorescence method
T1 sequence (Q9BY41 whole entry): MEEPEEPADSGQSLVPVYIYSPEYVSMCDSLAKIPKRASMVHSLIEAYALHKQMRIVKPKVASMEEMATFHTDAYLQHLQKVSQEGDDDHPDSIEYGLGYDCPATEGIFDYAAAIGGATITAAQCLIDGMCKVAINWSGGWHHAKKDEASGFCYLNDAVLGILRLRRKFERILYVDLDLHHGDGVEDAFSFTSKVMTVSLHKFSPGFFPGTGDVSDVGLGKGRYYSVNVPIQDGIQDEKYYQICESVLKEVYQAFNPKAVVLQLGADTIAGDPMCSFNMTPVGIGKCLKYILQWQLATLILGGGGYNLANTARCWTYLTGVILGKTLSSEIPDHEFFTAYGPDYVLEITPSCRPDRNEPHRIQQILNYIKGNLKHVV

Histone deacetylase 8 [4] = target: T2, Histone deacetylase 8 (Schistosoma mansoni, UniProt A5H660); test: Inhibition of Schistosoma mansoni HDAC8 expressed in Escherichia coli using Fluor de Lys as substrate incubated for 90 mins by fluorescence method
T2 sequence (A5H660 whole entry): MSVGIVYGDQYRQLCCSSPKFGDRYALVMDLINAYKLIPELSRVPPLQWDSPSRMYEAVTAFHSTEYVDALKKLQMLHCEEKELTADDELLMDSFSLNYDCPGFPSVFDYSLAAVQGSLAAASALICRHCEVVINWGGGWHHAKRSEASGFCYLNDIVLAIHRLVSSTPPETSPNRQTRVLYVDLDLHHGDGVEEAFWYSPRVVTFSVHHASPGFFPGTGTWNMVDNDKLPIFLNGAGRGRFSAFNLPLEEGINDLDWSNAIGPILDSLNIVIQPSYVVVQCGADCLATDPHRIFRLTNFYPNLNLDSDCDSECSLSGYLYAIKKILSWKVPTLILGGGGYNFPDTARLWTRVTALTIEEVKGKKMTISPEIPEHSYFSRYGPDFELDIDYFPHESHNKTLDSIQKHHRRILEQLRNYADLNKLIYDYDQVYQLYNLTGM

[5] = target: T3, Protein deacetylase HDAC6 (Homo sapiens, UniProt Q9UBN7); test: Inhibition of human HDAC6 using ZMAL(Cbz-(Ac)Lys-AMC as substrate preincubated for 90 mins followed by trypsin addition and measured after 20 mins by fluorimetric method
T3 sequence (Q9UBN7 whole entry): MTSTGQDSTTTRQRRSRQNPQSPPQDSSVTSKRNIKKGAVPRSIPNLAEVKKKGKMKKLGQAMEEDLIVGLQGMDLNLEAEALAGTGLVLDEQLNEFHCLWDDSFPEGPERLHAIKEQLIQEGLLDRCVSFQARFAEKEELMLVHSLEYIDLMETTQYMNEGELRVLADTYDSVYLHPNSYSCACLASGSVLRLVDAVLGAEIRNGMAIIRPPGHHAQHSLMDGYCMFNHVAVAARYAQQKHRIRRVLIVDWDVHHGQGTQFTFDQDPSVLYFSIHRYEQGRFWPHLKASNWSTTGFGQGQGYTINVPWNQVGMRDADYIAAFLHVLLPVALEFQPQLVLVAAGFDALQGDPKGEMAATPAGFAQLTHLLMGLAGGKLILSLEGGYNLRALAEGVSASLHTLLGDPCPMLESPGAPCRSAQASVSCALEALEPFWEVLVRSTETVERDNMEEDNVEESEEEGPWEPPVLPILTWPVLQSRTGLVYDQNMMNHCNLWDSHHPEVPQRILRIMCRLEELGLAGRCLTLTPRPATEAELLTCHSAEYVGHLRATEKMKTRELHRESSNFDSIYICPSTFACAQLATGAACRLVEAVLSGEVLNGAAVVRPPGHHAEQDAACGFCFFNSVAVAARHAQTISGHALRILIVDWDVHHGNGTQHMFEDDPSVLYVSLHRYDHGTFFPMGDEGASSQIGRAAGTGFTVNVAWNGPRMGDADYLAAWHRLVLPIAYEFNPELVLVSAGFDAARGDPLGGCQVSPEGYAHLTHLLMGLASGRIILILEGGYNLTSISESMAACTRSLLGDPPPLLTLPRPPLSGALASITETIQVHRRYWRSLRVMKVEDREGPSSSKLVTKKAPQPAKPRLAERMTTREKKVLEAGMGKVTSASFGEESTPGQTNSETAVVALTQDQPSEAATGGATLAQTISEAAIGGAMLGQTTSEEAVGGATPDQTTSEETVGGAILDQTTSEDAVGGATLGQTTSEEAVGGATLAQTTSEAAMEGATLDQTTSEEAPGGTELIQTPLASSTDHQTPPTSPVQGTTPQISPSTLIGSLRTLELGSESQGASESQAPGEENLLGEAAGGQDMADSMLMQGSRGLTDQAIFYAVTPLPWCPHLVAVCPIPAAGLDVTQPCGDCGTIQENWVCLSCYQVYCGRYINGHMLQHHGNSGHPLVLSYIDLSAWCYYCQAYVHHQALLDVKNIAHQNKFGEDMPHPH

Histone deacetylase 1 = Histone deacetylase 1 (Homo sapiens, UniProt Q13547); test: Inhibition of human HDAC1 (1 to 482 reidue) expressed in sf9 cells using ZMAL(Cbz-(Ac)Lys-AMC as substrate preincubated for 90 mins followed by trypsin addition and measured after 20 mins by fluorimetric method
Sequence of Histone deacetylase 1 (Q13547 whole entry): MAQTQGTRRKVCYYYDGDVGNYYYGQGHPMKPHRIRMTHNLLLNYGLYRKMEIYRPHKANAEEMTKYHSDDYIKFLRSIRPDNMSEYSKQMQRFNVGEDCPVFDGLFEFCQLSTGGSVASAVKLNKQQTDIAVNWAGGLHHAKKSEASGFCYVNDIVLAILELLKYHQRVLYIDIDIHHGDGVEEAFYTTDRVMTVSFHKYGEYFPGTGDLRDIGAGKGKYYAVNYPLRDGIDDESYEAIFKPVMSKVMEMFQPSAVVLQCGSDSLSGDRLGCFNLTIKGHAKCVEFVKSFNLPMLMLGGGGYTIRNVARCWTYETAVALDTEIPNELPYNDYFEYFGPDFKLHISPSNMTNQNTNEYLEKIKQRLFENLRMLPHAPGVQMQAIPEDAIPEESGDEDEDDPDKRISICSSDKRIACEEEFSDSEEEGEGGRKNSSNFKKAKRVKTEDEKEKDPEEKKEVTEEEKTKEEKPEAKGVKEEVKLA

Schistosoma mansoni [6] = test: Antischistosomal activity against Schistosoma mansoni assessed as worm mortality at 5 ug/ml incubated for 5 days by stereomicroscopic method relative to control; format: functional; settings: 120 h, time 5 day
[7] = Cytotoxicity against Biomphalaria alexandrina incubated for 24 hrs
[8] = Cytotoxicity against Biomphalaria alexandrina incubated for 24 hrs relative to control; parameters: concentration or dose not given beside the values
Schistosoma mansoni [9] = test: Antischistosomal activity against Schistosoma mansoni Puerto-Rican assessed as worm mortality incubated for 5 days by stereomicroscopic method; format: functional, organism-based; settings: 120 h; for IC90: time 5 day
Schistosoma mansoni [10] = test: Antischistosomal activity against Schistosoma mansoni Egyptian assessed as worm mortality incubated for 5 days by stereomicroscopic method; format: functional, organism-based; settings: 120 h; for IC90: time 5 day
Schistosoma mansoni [11] = test: Antischistosomal activity against Schistosoma mansoni Schistosomula assessed as worm death at 10 uM incubated for 24 hrs relative to control; format: functional
Schistosoma japonicum = test: Antischistosomal activity against Schistosoma japonicum assessed as worm death at 10 uM incubated for 120 hrs relative to control; format: functional; settings: Schistosoma japonicum
Schistosoma mansoni [12] = test: Antischistosomal activity against adult Schistosoma mansoni assessed as worm death at 10 uM incubated for 120 hrs relative to control; format: functional
Schistosoma mansoni [13] = test: Antischistosomal activity against juvenile Schistosoma mansoni assessed as worm death at 10 uM incubated for 120 hrs relative to control; format: functional
[14] = target: T4, Thioredoxin glutathione reductase (Schistosoma mansoni, UniProt Q962Y6); test: Inhibition of Schistosoma mansoni thioredoxin glutathione reductase incubated for 30 mins by DTNB assay
T4 sequence (Q962Y6 whole entry): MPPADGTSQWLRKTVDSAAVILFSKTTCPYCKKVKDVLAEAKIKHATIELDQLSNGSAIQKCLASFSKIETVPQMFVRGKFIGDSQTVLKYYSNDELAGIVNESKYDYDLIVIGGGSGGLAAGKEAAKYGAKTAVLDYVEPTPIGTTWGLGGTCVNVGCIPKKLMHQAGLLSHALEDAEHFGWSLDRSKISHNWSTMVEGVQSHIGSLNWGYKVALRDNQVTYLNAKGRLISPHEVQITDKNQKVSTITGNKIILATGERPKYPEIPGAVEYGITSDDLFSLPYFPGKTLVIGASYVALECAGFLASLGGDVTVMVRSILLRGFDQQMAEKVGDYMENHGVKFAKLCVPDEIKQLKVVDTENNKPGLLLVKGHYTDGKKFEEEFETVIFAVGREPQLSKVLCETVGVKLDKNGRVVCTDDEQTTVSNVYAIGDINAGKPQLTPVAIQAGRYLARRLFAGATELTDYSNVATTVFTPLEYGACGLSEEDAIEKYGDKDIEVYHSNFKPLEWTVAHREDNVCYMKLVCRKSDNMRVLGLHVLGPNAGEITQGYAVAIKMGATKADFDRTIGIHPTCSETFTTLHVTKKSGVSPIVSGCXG

Schistosoma mansoni [15] = test: Antischistosomal activity against Schistosoma mansoni Puerto Rican schistosomula assessed as effect on worm phenotype measured after 72 hrs; format: functional, organism-based
Schistosoma mansoni [16] = test: Antischistosomal activity against Schistosoma mansoni Puerto Rican schistosomula assessed as effect on worm motility measured after 72 hrs; format: functional, organism-based
Schistosoma mansoni [17] = test: Antischistosomal activity against Schistosoma mansoni infected in NMRI mouse assessed as worm burden reduction at 400 mg/kg, po administered […] for 4 consecutive days and measured after 14 days relative to control; format: functional; parameters: scale not given: the % may be the effect or the level left; settings: time 14 day
Schistosoma mansoni [18] = test: microbe, parasite or virus in culture; settings: Liberian, 72 h
Description: Antischistosomal activity against Schistosoma mansoni Liberian NTS incubated for 72 hrs by microscopic method

Schistosoma mansoni [19] = test: Antischistosomal activity against Schistosoma mansoni Puerto-Rican incubated for 72 hrs by inverted microscopic method; format: functional, organism-based

OC(c1cc(-c2ccc(C(F)(F)F)cc2)nc(C(F)(F)F)c1)C1CCCCN1 (stereo not drawn) [ENPIROLINE] showed an Activity (Schistosoma mansoni [1]) greater than 82%.

In the case of O=C1OC[C@@H](Cc2ccc3c(c2)OCO3)[C@@H]1Cc1ccc2c(c1)OCO2, the Activity (Schistosoma mansoni [2]) is reported as greater than 75%.

O[C@@H]1OC[C@@H](Cc2ccc3c(c2)OCO3)[C@@H]1Cc1ccc2c(c1)OCO2 showed an Activity (Schistosoma mansoni [2]) greater than 75%.

For CCCCCCC(=O)N(O)C1CC(=O)C(c2ccc(Cl)cc2)C1=O (stereo not drawn), the IC50 (Histone deacetylase 8 [3]) was 7.69 µM, the IC50 (Histone deacetylase 8 [4]) was 5.5 µM and the IC50 [5] was 2.65 µM. For the same compound, the IC50 (Histone deacetylase 1) was 3.98 µM.

COc1cc(C[C@@H]2C(=O)OC[C@H]2Cc2ccc3c(c2)OCO3)cc(OC)c1OC gave an Activity (Schistosoma mansoni [2]) greater than 75%.

Compound Cn1c2nc3ccccc3c-2c(N2CCN(CCO)CC2)c2cc(Cl)ccc21 has a mortality at 5 µg/mL (Schistosoma mansoni [6]) of 100%, an LC50 [7] of 3.9 µM and an LC90 [7] of 4.8 µM. It also gave a mortality [8] of 100%, an IC50 (Schistosoma mansoni [9]) of 3.29 µM and an IC90 (Schistosoma mansoni [9]) of 5.57 µM. The IC50 (Schistosoma mansoni [10]) was 1.77 µM and the IC90 (Schistosoma mansoni [10]) was 4.55 µM.

For COc1ccc(C(Nc2cc(C)ccn2)c2ccc3ccc(C)nc3c2O)cc1 (stereo not drawn), the mortality at 10 µM (Schistosoma mansoni [11]) was 20%, the mortality at 10 µM (Schistosoma japonicum) was 56% and the mortality at 10 µM (Schistosoma mansoni [12]) was 53%. For the same compound, the mortality at 10 µM (Schistosoma mansoni [13]) was 24% and the IC50 [14] was 0.13 µM.

CC1(C)CCC[C@]2(C)C(CC[C@@](C)(O)/C=C/c3ccccc3)[C@](C)(O)CC[C@@H]12 (stereo partly drawn) gave an IC50 (Schistosoma mansoni [15]) of less than 10 µM and an IC50 (Schistosoma mansoni [16]) of less than 10 µM.

With Cn1c2nc3ccccc3c-2c(NCCN2CCOCC2)c2cc(Cl)ccc21 the mortality at 5 µg/mL (Schistosoma mansoni [6]) was 100%, the LC50 [7] was 1.3 µM and the LC90 [7] was 2.2 µM. The mortality [8] was 100%, the IC50 (Schistosoma mansoni [9]) was 3.54 µM and the IC90 (Schistosoma mansoni [9]) was 6.83 µM. It also gave an IC50 (Schistosoma mansoni [10]) of 1.26 µM and an IC90 (Schistosoma mansoni [10]) of 4.05 µM.

Compound O[C@H](c1cc(-c2ccc(C(F)(F)F)cc2)nc(C(F)(F)F)c1)[C@H]1CCCCN1 has an Activity (Schistosoma mansoni [1]) greater than 82%.

COc1ccc(Nc2nc(NCc3ccccc3)c3ccccc3n2)cc1 showed an Activity (Schistosoma mansoni [17]) of 0%, an IC50 (Schistosoma mansoni [18]) of 2.7 µM and an IC50 (Schistosoma mansoni [19]) of 0.8 µM.

With Clc1cc(Br)ccc1-c1ccc(CNCC2CCNCC2)o1 the Activity (Schistosoma mansoni [17]) was 18.7%, the IC50 (Schistosoma mansoni [18]) was 3.4 µM and the IC50 (Schistosoma mansoni [19]) was 6.3 µM.
